# Values quoted from earlier work, collected in patent US20170313932A1, “SYNTHETIC ACID COMPOSITIONS ALTERNATIVES TO CONVENTIONAL ACIDS IN THE OIL AND GAS INDUSTRY” (FLUID ENERGY GROUP LTD., priority 2014, published 2017).
# System: Life and Health
structure (smiles),measurement,setting,value
"Cl [Hydrogen chloride gas, Hydrogen chloride]",Level Immediately Dangerous to Life and Health (IDHL),,above 50 PPM
same,Level at which death can occur,"gas exposure, death in 2-3 minutes",1300-2000 parts per million (PPM)
